Data published in ChEMBL document CHEMBL1146810, “Synthesis of a bromotyrosine-derived natural product inhibitor of mycothiol-S-conjugate amidase” (Bioorg Med Chem Lett, 2004).

Legend:
[1] = Inhibitory activity against AcGI deacetylase was determined
[2] = system: Mycobacterium tuberculosis; test: Inhibitory activity against mycothiol-S-conjugate amidase (MCA) was determined

NCCCOc1c(Br)cc(C/C(=N\O)C(=O)NCCCCN=C(N)N)cc1Br
Inhibition [1]: 150 µM
Inhibition [2]: 30 µM
